# According to paper PMC6026870, “Selective induction of cancer cell death by VDAC1‐based peptides and their potential use in cancer therapy” (Molecular Oncology, 2018):
# What was measured:
# [1] = system: HeLa cells (HK‐I in cytosolic fraction); experiment: Mitochondria‐bound HK detachment, cell fractionation and immunoblotting; type: cell-based, human; conditions: peptide 3, 5, 10 μM, 3 h, digitonin […], immunoblot (Fig. 4E)
# Experimental: Peptide‐induced HK detachment from mitochondria to the cytosol was also analyzed by immunoblotting. […] Samples were centrifuged at 12 000 g at 4 °C for 10 min, and the obtained supernatants (cytosolic fraction) and pellets (mitochondria) were analyzed by immunoblotting using anti‐HK‐I, anti‐VDAC1, and anti‐GAPDH antibodies, and then with secondary HRP‐conjugated antibodies.
# [2] = system: A549 cells; experiment: Apoptosis, annexin V–FITC/PI staining and flow cytometry; type: cell-based, human; conditions: A549, 3 h, serum‐free, 37 °C (Figs 5F,G; also MDA‐MB‐231, Fig. S2B,C)
# Experimental: For PI and annexin V–FITC staining, A549 or MDA‐MB‐231 cells, untreated or treated with VDAC1‐based peptides, were collected (1500 g for 5 min), washed, and resuspended in 200 μL binding buffer (10 mM HEPES/NaOH (pH 7.4), 140 mM NaCl, and 2.5 mM CaCl2). Annexin V–FITC staining was performed according to the recommended protocol. Cells were then washed once with binding buffer and resuspended in 200 μL binding buffer, to which PI was added immediately before flow cytometric analysis. At least 10 000 events were collected, recorded on a dot plot, and analyzed by flow cytometer. Acridine orange/ethidium bromide staining was carried as described previously (Zaid et al., 2005), with cells visualized by fluorescence microscopy (Olympus LX2‐KSP, Tokyo, Japan), and images were captured with a CCD camera. About 200 cells were counted for each experiment.
# [3] = system: A549‐, MDA‐MB‐231‐, and U‐87MG‐derived tumors; experiment: qPCR of excised xenograft tumors; type: in vivo, mouse
# Experimental: U‐87MG cells (3 × 10^6/mouse), A549 cells (5 × 10^6/mouse), or MDA‐MB‐231 cells (3 × 10^6/mouse) were inoculated subcutaneously (s.c.) into the hind leg flanks of athymic 8‐week‐old male nude mice (Envigo, Huntingdon, UK). Tumor size was measured using a digital caliper and volume was calculated, and when reached 50–100 mm^3 for each tumor type, mice were randomly divided into two groups (five mice per group). […] The xenografts were injected (two points, 20 μL per tumor) every two days. Beginning on the day of inoculation, mouse weight and tumor volume were monitored twice a week. Experiments were terminated after 14, 29, or 20 days for U‐87MG‐, MDA‐MB‐231‐, or A549‐based tumors, respectively. The mice were sacrificed and tumors were excised. Half of each tumor was fixed in 4% buffered formaldehyde, paraffin‐embedded, and processed for IHC, while the second half was frozen in liquid nitrogen for immunoblotting and qPCR analyses. These experimental protocols were approved by the Institutional Animal Care and Use Committee of Ben‐Gurion University.
# Total RNA was isolated from untreated and peptide‐treated tumors (three mice each) using an RNeasy Mini Kit (Qiagen, Hilden, Germany) according to the manufacturer's instructions. Total RNA quality was analyzed using the Agilent RNA 6000 Nano Kit. […] The levels of target genes were normalized relative to β‐actin mRNA levels. Samples were amplified by a 7300 Real‐Time PCR System (Applied Biosystems) for denaturation step of 5 min at 95 °C and 40 cycles using the following PCR parameters: 95 °C for 15 s, 60 °C for 1 min, and 72 °C for 1 min. The copy numbers for each sample were calculated by the CT‐based calibrated standard curve method. The mean fold changes (±SE) of three replicates were calculated.
# [4] = treated tumors vs control, n = 3 (Fig. 7D,E)
smiles,measurement,setting,value
CC[C@H](C)[C@H](NC(=O)[C@H](Cc1ccc(O)cc1)NC(=O)[C@@H]1CCCN1C(=O)[C@H](CCCNC(=N)N)NC(=O)[C@H](Cc1c[nH]cn1)NC(=O)[C@@H](CO)NC(=O)[C@@H](Cc1c[nH]c2ccccc12)NC(=O)[C@H](NC(=O)[C@@H](Cc1c[nH]c2ccccc12)NC(=O)[C@@H](CCC(=O)O)NC(=O)[C@@H](CCCCN)NC(=O)[C@@H](CCCCN)NC(=O)[C@@H](CC(C)C)NC(=O)[C@@H](CCC(=O)O)NC(=O)[C@H](NC(=O)[C@@H](C)NC(=O)[C@H](NC(=O)[C@@H](CC(N)=O)NC(=O)[C@@H](CC(C)C)NC(=O)[C@@H](C)NC(=O)[C@@H](Cc1c[nH]c2ccccc12)NC(=O)[C@H](NC(=O)[C@@H](C)NC(=O)CNC(=O)[C@@H](CC(N)=O)NC(=O)[C@@H](CO)NC(=O)[C@@H](CC(N)=O)NC(=O)[C@@H](CCCCN)NC(=O)[C@@H](Cc1c[nH]c2ccccc12)NC(=O)[C@H](NC(=O)[C@@H](Cc1c[nH]c2ccccc12)NC(=O)[C@H](N)CCCCN)[C@H](C)O)[C@H](C)O)C(C)C)[C@H](C)O)[C@H](C)O)C(=O)N[C@@H](C)C(=O)N[C@@H](Cc1c[nH]cn1)C(=O)O [R‐Tf‐D‐LP4],increase in HK in the cytosolic fraction,[1],about twofold
same,apoptotic cell death (annexin V–FITC and PI staining),[2],over 90%
same,"decrease in expression of Glut‐1, HK‐I and GAPDH","[3]; A549, MDA‐MB‐231, U‐87MG tumors vs control (Fig. 8)",three‐ to fourfold
same,"p53 expression levels, elevation","[3]; A549‐, MDA‐MB‐231‐, U‐87MG‐derived tumors, n = 3 (Fig. 7D–F)",over two‐ to fivefold
same,Caspase‐8 overexpression,[3]; [4],two‐ to threefold
same,"SMAC/Diablo expression levels, increase",[3]; [4],two‐ to fivefold
same,caspase‐3 overexpression,[3]; [4],two‐ to threefold
same,"Cyto c expression, increase","[3]; treated tumors vs control, n = 3 (Fig. 7D,F)",two‐ to fourfold
